Assays:
Format in all cases: functional
Design in all cases: scale not given: the % may be the effect or the level left
HT-29 [1] = test: Inhibition of Myc mRNA expression in human HT-29 cells assessed as Myc mRNA level at 5 ug/ml incubated for 48 hrs by RT-PCR method relative to control
HT-29 [2] = test: Inhibition of VEGF mRNA expression in human HT-29 cells assessed as VEGF mRNA level at 5 ug/ml incubated for 48 hrs by RT-PCR method relative to control
HT-29 [3] = test: Inhibition of VEGF production in human HT-29 cells assessed as VEGF level at 5 ug/ml incubated for 72 hrs by ELISA method relative to control
HT-29 [4] = test: Inhibition of hTERT mRNA expression in human HT-29 cells assessed as hTERT mRNA level at 5 ug/ml incubated for 48 hrs by RT-PCR method relative to control
HT-29 [5] = test: Inhibition of hTERT mRNA expression in human HT-29 cells assessed as hTERT mRNA level at 10 uM incubated for 48 hrs by RT-PCR method relative to control
HT-29 [6] = test: Inhibition of Myc mRNA expression in human HT-29 cells assessed as Myc mRNA level at 10 uM incubated for 48 hrs by RT-PCR method relative to control
HT-29 [7] = test: Inhibition of Myc mRNA expression in human HT-29 cells assessed as Myc mRNA level at 50 nM incubated for 48 hrs by RT-PCR method relative to control
HT-29 [8] = test: Inhibition of VEGF mRNA expression in human HT-29 cells assessed as VEGF mRNA level at 10 uM incubated for 48 hrs by RT-PCR method relative to control
HT-29 [9] = test: Inhibition of hTERT mRNA expression in human HT-29 cells assessed as hTERT mRNA level at 50 nM incubated for 48 hrs by RT-PCR method relative to control
HT-29 [10] = test: Inhibition of VEGF mRNA expression in human HT-29 cells assessed as VEGF mRNA level at 50 nM incubated for 48 hrs by RT-PCR method relative to control

Compound	Activity (HT-29 [1]) [%]	Activity (HT-29 [2]) [%]	Activity (HT-29 [3]) [%]	Activity (HT-29 [4]) [%]	Activity (HT-29 [5]) [%]	Activity (HT-29 [6]) [%]	Activity (HT-29 [7]) [%]	Activity (HT-29 [8]) [%]	Activity (HT-29 [9]) [%]	Activity (HT-29 [10]) [%]
COc1cc2c(c(OC)c1OC)-c1ccc(OC)c(=O)cc1[C@@H](NC(=O)CCCC(=O)OCC[C@H](C[C@H](C)C[C@@H]1CC=CC(=O)O1)OC)CC2	97	70	44	125						
COc1cc2c(c(OC)c1OC)-c1ccc(OC)c(=O)cc1[C@@H](NC(=O)CCCCCCCCCCC(=O)OCC[C@H](C[C@H](O)C[C@@H]1CC=CC(=O)O1)OC)CC2	15	7	44	42	55	32	94	9	81	51
CO[C@H](CCO)C[C@H](O)C[C@@H]1CC=CC(=O)O1	111	44	93	125	>100	66	>100	40	>100	90
C/C=C/C[C@H](C)[C@@H](OC)[C@@H](C)[C@H](O)C[C@H]1OC(=O)C=C[C@H]1CC [PIRONETIN]	118	48	50	119						
COc1cc2c(c(OC)c1OC)-c1ccc(OC)c(=O)cc1[C@@H](NC(=O)CCCC(=O)OCCCCC[C@@H]1CC=CC(=O)O1)CC2	16	6	45	67						
COc1cc2c(c(OC)c1OC)-c1ccc(OC)c(=O)cc1[C@@H](NC(C)=O)CC2 [COLCHICINE]	6	4	40	20	30	6	19	5	43	48
COc1cc2c(c(OC)c1OC)-c1ccc(OC)c(=O)cc1[C@@H](NC(=O)CCCCCCCCCCC(=O)OCCCCC[C@@H]1CC=CC(=O)O1)CC2	5	3	64	19	27	13	60	8	75	36
